Here are results for 10 compounds from patent publication US20260265341A1, “EPISYNCHRONS FOR PRECISION MEDICINE” (priority 2022, published 2026).

Marks after values point to notes of the source that are not given here. Primed or numbered codes have the meaning given here. Ends that are not written are not given here. * marks the point of attachment. GW4064″ = FXR ligand, CC(C)c1onc(-c2c(Cl)cccc2Cl)c1COc1ccc(/C=C/c2cccc(C(=O)*)c2)c(Cl)c1; RARβ/γ ligand = not defined here; Decanoyl = CCCCCCCCCC(=O)*; bexarotene″ = RXR ligand; GW4064(3) = FXR ligand; GW7647 = PPARα ligand

Holding throughout (format): cell-based
Test [1] concerns C2C12 myoblast cell line. Put plainly: C2C12 myoblast differentiation assay (creatine kinase). The arrangement: CK (units/mg): unit not given here. To be noted: for CK (units/mg): peptide(s) 0.66 uM, no free added ligand, 96 h, relative to imm3SVD (=100). Here is the method: C2C12 myoblast cell line (ATCC, Manassas, VA) was cultured in DMEM medium supplemented with 10% FBS and 1% penicillin/streptomycin. For differentiation, cells were cultured in the same medium, except that 10% FBS was replaced by 2% horse serum. Peptides and NR ligands were added at the indicated concentrations and cells were harvested 96 hours later for assay. Cell extracts were assayed for creatine kinase (CK) per mg protein. CK was measured using the ECPK-100 kit from BioAssay Systems (Hayward, CA). Protein was assayed using the BCA protein assay kit from Thermofisher Scientific (Waltham, MA).

Test [2] relates to A375. Put plainly: Cancer cell viability (CellTiterGlo), A375. To be noted: RXR modulators each at 0.5 uM with peptide imm3A1 0.66 uM, 72 hour; untreated=100. Here is the method:
(§1) A375, A549 and HuT78 cancer cell lines was obtained from American Type Culture Collection (ATCC). They were grown in a T-75 flask in DMEM (or IMDM, for HuT78) medium containing 10% fetal bovine serum and penicillin-streptomycin at 37° C. in a humidified, 5% CO2 incubator. Cells (100 µl, 2,000 cells/well; 5,000 cells/well for HuT78) were plated in a 96-well plate and incubated overnight at 37° C. in a humidified, 5% CO2 incubator. Next day, 10 ul/well of compounds were added (quadruplicate wells). After 72 hour incubation with the compound, cell viability was measured in a luminometer by addition of 100 µL/well CellTiterGlo reagent (Promega Inc, Madison, WI) and reading chemiluminescence after 10 mins, as recommended by the manufacturer. Peptide imm3A1 ([…]-[…]) was added at 0.66 uM and RXR modulators, each at 0.5 uM. The results of this experiment are shown below, expressed as percent survival of cells (untreated=100).

Test [3] deals with A549. As to the kind of experiment: Cancer cell viability (CellTiterGlo), A549. To be noted: RXR modulators each at 0.5 uM with peptide imm3A1 0.66 uM, 72 hour; untreated=100. As to the method:
as §1
Background: In ATP-based viability assays light output follows the ATP content of the culture.

The subject of test [4] is HuT78. Put plainly: Cancer cell viability (CellTiterGlo), HuT78. To be noted: RXR modulators each at 0.5 uM with peptide imm3A1 0.66 uM, 72 hour; untreated=100. Here is the method:
as §1

Test [5] concerns HFF-1 cell line. Put plainly: Collagen stimulating activity (COL1A1 ELISA of supernatants). To be noted: peptide 2 uM, 72 hour, supernatant anti-COL1A1 ELISA. Here is the method: Immodulin peptides have potential untility in the field of cosmetics. HFF-1 cell line from American Type Culture Collection (ATCC) was grown in DMEM Medium containing 10% fetal bovine serum and penicillin-streptomycin at 37° C. in a humidified, 5% CO2 incubator. 2,000 cells/well were plated in a 96-well plate and incubated overnight. 10 ul/well of peptides (2 uM final concentration) were added in quadruplicate wells. After 72 hour incubation with the compound, supernatants were collected and immunoreactivity was measured by ELISA using monoclonal anti-COL1A1 antibody (Abcam, Cambridge, MA). * p<0.05, ** p<0.01 vs no peptide.
(In an ELISA, binding on a coated surface is turned into a signal by an enzyme label.)

In the case of “imm3ppa: SDKKGFYKKKQCRPSKGRKRGFCWSVDK with C-lig GW7647 (PPARα ligand) on C-terminal lysine (SDKKGFYKKKQCRPSKGRKRGFCWSVDK(GW7647); cysteine pairing not given here)”, the “CK (units/mg)” value in test [1] is listed as 155.9 ± 18.8.
On to “imm3fxr-bex: fxr-SDKKGFYKKKQCRPSKGRKRGFCWSVDK-[bex]: GW4064 at N-terminus, bexarotene at C-terminus; multisynchron ({GW4064″}-SDKKGFYKKKQCRPSKGRKRGFCWSVDK-{bexarotene″}; cysteine pairing not given here)”, for which the “performance in cell culture assays” value in test [1] (single peptide compared with combination of imm3fxr and imm3bex) was “performs as predicted from the performance of the combination of imm3fxr and imm3bex episynchrons”.
Turning to `CN1c2ccccc2N=C(c2ccc(C(=O)O)cc2)c2cc3c(cc21)C(C)(C)CCC3(C)C` [HX600], the “percent survival of cells, A375” value in test [2] is listed as 57.1 ± 0.6 a percent. Moreover, the “percent survival of cells, A549” value in test [3] stood at 60.0 ± 0.6 a percent. Also, in test [4], the “percent survival of cells, HuT78” value is recorded as 48.7 ± 2.8 a percent.
“imm3bex: SDKKGFYKKKQCRPSKGRKRGFCWSVDK with C-lig bexarotene (RXR ligand) (SDKKGFYKKKQCRPSKGRKRGFCWSVDK-{bexarotene″}; cysteine pairing not given here)”: in test [1], the “CK (units/mg)” value is given as 121.0 ± 6.6.
Turning to “IM3dec: (decanoic)-KKGFYKKKQCRPSKGRKRGFCW, N-lig PPARγ (Decanoyl-KKGFYKKKQCRPSKGRKRGFCW; cysteine pairing not given here)”, in test [5], the COL1 ng/ml is listed as 0.41 ± 0.11* ng/ml.
Regarding “IM3K9: peptide AFNSYELGSKGFYKKKQCRPSKGRKRGFCW”, in test [5], the COL1 ng/ml was 0.57 ± 0.13** ng/ml.
With “imm3fxr: SDKKGFYKKKQCRPSKGRKRGFCWSVDK with C-lig GW4064 (FXR ligand) (SDKKGFYKKKQCRPSKGRKRGFCWSVDK-{GW4064(3)}; cysteine pairing not given here)”, the “CK (units/mg)” value in test [1] was found to be 136.8 ± 19.6.
IM3: peptide KKGFYKKKQCRPSKGRKRGFCW: the COL1 in test [5] turned out to be 0.28 ± 0.23 ng/mL.
In the case of `CN1c2ccc([N+](=O)[O-])cc2N=C(c2ccc(C(=O)O)cc2)c2cc3c(cc21)C(C)(C)CCC3(C)C` [HX531], the “percent survival of cells, A375” value in test [2] amounted to 89.9 ± 1.6 a percent. Also, in test [3], the “percent survival of cells, A549” value is listed as 89.2 ± 4.1 b percent. For the same compound, in test [4], the “percent survival of cells, HuT78” value is given as 88.1 ± 0.8%.
Take “imm3decK9adp: multisynchron SAFNSYELGSDKKGFYKKKQCRPSKGRKRGFCWS, N-lig PPARγ, C-lig RARβ/γ (Decanoyl-SAFNSYELGSDKKGFYKKKQCRPSKGRKRGFCWS-{RARβ/γ ligand}; cysteine pairing not given here; reading uncertain)”: the COL1 ng/ml in test [5] was 5.27 ± 0.36** ng/ml.
